# Source: publication PMC9241695, “Selective Metal Chelation by a Thiosemicarbazone Derivative Interferes with Mitochondrial Respiration and Ribosome Biogenesis in Candida albicans” (Microbiology Spectrum, 2022)
# Key:
# C. albicans SC5314 cells [1] = experiment: ROS production assay (DCFH-DA); assay type: cell-based, Candida albicans; conditions: 6 h, compared with the control
# Procedure: ROS production assay. Logarithmic-phase C. albicans SC5314 cells (1 × 10^6 cells/mL in RPMI1640 medium) were incubated in the presence or absence of 19ak for 6 h, followed by incubation with 2′,7′-dichlorofluorescein diacetate (DCFH-DA) in the dark for 30 min. The fluorescence intensity was then measured by flow cytometry, and the data were analyzed with Win MDI 2.9 software. […]
# C. albicans SC5314 cells [2] = experiment: Intracellular ATP production; assay type: cell-based, Candida albicans; conditions: 0.125 μg/mL, compared with control cells
# Procedure: albicans SC5314 cells (1 × 10^6 cells/mL) were challenged with various doses of 19ak and incubated at 30°C for 6 h, followed by staining with 20 μM Rh123 for 30 min in the dark and detection by flow cytometry (Becton Dickinson, CA, USA).
# Measurement of intracellular ATP production. To explore whether 19ak affects intracellular ATP content by damaging mitochondria, we treated C. albicans SC5314 cells (1 × 10^6 cells/mL) with different doses of 19ak. After lysing the cells in lysis buffer, ATP levels were measured with the ATP Assay Kit (Beyotime, Haimen, China) according to the manufacturer's instructions. Cellular protein concentrations were determined using a BCA Protein Assay Kit (Beyotime, Haimen, China). The intracellular ATP content was calculated by referring to a standard curve and normalized using the protein content of each sample for expression as nmol/mg […]
# ROS production assay. […] The fluorescence intensity was then measured by flow cytometry, and the data were analyzed with Win MDI 2.9 software.
# Influence of oxidant or antioxidant molecules on 19ak activity. […] The effects of NAC, Tu and DTT on the growth of 19ak treated fungal cells were measured using a time-growth curve. […] A microplate reader was used to measure the absorbance at600 nm, and the growth curves were plotted.
smiles,measurement,setting,value
C/C(=N\NC(=S)N(C)C)c1ccccn1 [Compound 19ak],ROS formation (DCFH-DA),C. albicans SC5314 cells [1],decreased ROS
same,Decrease of intracellular ATP levels,C. albicans SC5314 cells [2],approximately 65.8%
